Results as given in PMC5171792 (Scientific Reports, 2016).
Where two headings read alike, the source gives them in different places.

What was measured:
[1] = target: H1N1 NA (Influenza A virus (H1N1), UniProt C3W5S3); assay: biochemical; type: biochemical
[2] = in vitro; conditions: dog
[3] = system: A/Malaysia/Muar/33/2009 (H1N1); assay: Antiviral (virus inhibition) assay in MDCK cells, plaque reduction; type: cell-based; conditions: Influenza A virus
[4] = system: MDCK cells
[5] = system: MDCK cells; assay: Cell cytotoxicity, cell proliferation assay with WST-1 reagent

COc1cc(C=O)ccc1O [VN, Vanillin, reference compound]
ΔGbind (estimated experimental) [1]: -4.78 kcal/mol
CC50 [2]: 657 µM
EC50 [3]: 6.05 ± 4.3 µM
toxicity on the MDCK cells [4]: without showing any signs of toxicity at high concentrations

COc1cc(C=O)cc(NCCO)c1O [MY22]
ΔGbind (estimated experimental) [1]: -4.67 kcal/mol

COc1ccc(S(=O)(=O)c2ccc(/C=C/C(=O)O)cc2OC)cc1 [MY19]
ΔGbind (estimated experimental) [1]: -4.38 kcal/mol

CC(=O)N[C@H]1[C@H]([C@H](O)[C@H](O)CO)OC(C(=O)O)=C[C@@H]1O [DANA, 2-deoxy-2,3-didehydro-N-acetylneuraminic acid, reference compound]
ΔGbind (estimated experimental) [1]: -6.50 kcal/mol

COc1cc(C=O)cc(O)c1O [MY23, 3-hydroxyvanillin]
% inhibition of H1N1 NA [1]: high inhibition
ΔGbind (estimated experimental) [1]: -5.43 kcal/mol
CC50 [2]: 601 µM
EC50 [3]: 40.5 ± 3.7 µM
toxicity on the MDCK cells [4]: significant reduction in cell viability

COC(=O)/C=C/c1cc(OC)c(O)c([N+](=O)[O-])c1 [MY13]
ΔGbind (estimated experimental) [1]: -4.19 kcal/mol

CCOC(=O)/C=C/c1cc(OC)c(OC(C)C)c([N+](=O)[O-])c1 [MY3]
ΔGbind (estimated experimental) [1]: -5.27 kcal/mol
CC50 [2]: 321 µM
EC50 [3]: 7.5 ± 9.3 µM
toxicity on the MDCK cells [4]: without showing any signs of toxicity at high concentrations

COc1cc(C=O)cc(N=C(N)N)c1O [MY21, guanidino vanillin]
ΔGbind (estimated experimental) [1]: -5.60 kcal/mol
CC50 [2]: 478 µM
EC50 [3]: 1.7 ± 0.02 µM
toxicity on the MDCK cells [4]: without showing any signs of toxicity at high concentrations

CCC(CC)O[C@@H]1C=C(C(=O)O)C[C@H](N)[C@H]1NC(C)=O [Oseltamivir carboxylate, reference compound]
CC50 [2]: 351 µM
EC50 [3]: 35 µM

CCCCOC(=O)/C=C/c1ccc(O)c(OC)c1 [MY12]
ΔGbind (estimated experimental) [1]: -3.91 kcal/mol

COc1cc(/C=C/C(=O)O)ccc1S(=O)(=O)c1ccc(Oc2ccccc2)cc1 [MY20]
ΔGbind (estimated experimental) [1]: -3.91 kcal/mol

CCCOC(=O)/C=C/c1ccc(O)c(OC)c1 [MY11]
ΔGbind (estimated experimental) [1]: -4.36 kcal/mol

COc1c(O)ccc(/C=C/C(=O)O)c1[N+](=O)[O-] [MY24]
ΔGbind (estimated experimental) [1]: -4.31 kcal/mol
melting point: 165 to 169 °C

COC(=O)/C=C/c1ccc(O)c(OC)c1 [MY9]
ΔGbind (estimated experimental) [1]: -4.85 kcal/mol

CCCCOC(=O)/C=C/c1cc(OC)c(O)c([N+](=O)[O-])c1 [MY15]
ΔGbind (estimated experimental) [1]: -3.91 kcal/mol
CC50 [2]: 352 µM
EC50 [3]: ~0.95 µM
toxicity on the MDCK cells [4]: without showing any signs of toxicity at high concentrations

CCOC(=O)/C=C/c1cc(OC)c(O)c([N+](=O)[O-])c1 [MY2]
ΔGbind (estimated experimental) [1]: -4.70 kcal/mol

CCOC(=O)/C=C/c1ccc(O)c(OC)c1 [MY10]
ΔGbind (estimated experimental) [1]: -4.42 kcal/mol

CCCOC(=O)/C=C/c1cc(OC)c(O)c([N+](=O)[O-])c1 [MY14]
ΔGbind (estimated experimental) [1]: -4.76 kcal/mol

COc1cc(/C=C/C(=O)O)ccc1O [FA, Ferulic acid, reference compound]
ΔGbind (estimated experimental) [1]: -5.02 kcal/mol
inhibition at 125 µg/mL ([1]; read-out: % inhibition of H1N1 NA): 86%
CC50 ([2]; MDCK cells): 702 µM
EC50 [3]: 1.32 ± 0.08 µM
toxicity on the MDCK cells [5]: without showing any signs of toxicity at high concentrations

COc1cccc(S(=O)(=O)c2ccc(/C=C/C(=O)O)cc2OC)c1 [MY18]
ΔGbind (estimated experimental) [1]: -3.91 kcal/mol
